According to US9045401B2, “Methods for treating or ameliorating a melanoma and killing melanoma cells” (THE REGENTS OF THE UNIVERSITY OF CALIFORNIA, priority 2007, dated 2015):
Converted amounts (≈) assume the structure as drawn. “Also recorded” adds a separate entry of the source. Like-named read-outs stand apart in the source and are kept apart here.

Columns and labels:
[1] = test system: M21 melanoma cells; assay: XTT cell proliferation assay; assay type: cell-based; details: Homo sapiens, anti-proliferative effect, FIG. 6
Experimental: (§1) Cytotoxicity Assay. Cytotoxicity of ScA was assessed using the XTT cell proliferation assay. Briefly cells were plated on 96 well plates (5,000 per well) and incubated over night at 37° C. to allow for attachment and spreading. After 24 h, ScA was added from a DMSO stock, previously frozen at −80C as added directly from serial dilutions in DMSO at concentrations ranging from 100 uM to 100 fM. After 72 h, XTT (Aldrich Chemicals) was added to a final concentration of 250 ug/well. The plates were then incubated under standard tissue culture conditions until the control wells (DMSO) reached an OD value between 1.0-1.5. as measured at 450 nm using a microtiter plate reader. The cell viability-drug dilution profiles were obtained from sigma plots, and drug concentrations which inhibited growth by 50% were calculated from multiple runs. (IC50)

[2] = test system: Molt-4 T cell leukemia cells; assay: XTT cell proliferation assay; assay type: cell-based; details: Homo sapiens, anti-proliferative effect, FIG. 6
Experimental: as §1

[3] = test system: PC3 prostate cancer cells; assay: XTT cell proliferation assay; assay type: cell-based; details: Homo sapiens; anti-proliferative effect, FIG. 6
Experimental: as §1

[4] = test system: TJK304 cells; assay: XTT cell proliferation assay; assay type: cell-based; details: anti-proliferative effect, FIG. 6
Experimental: as §1

[5] = test system: pancreatic metastatic mouse carcinoma cells; assay: XTT cell proliferation assay; assay type: cell-based; details: anti-proliferative effect, FIG. 6
Experimental: as §1

[6] = test system: NB7 neuroblastoma cells; assay: XTT cell proliferation assay; assay type: cell-based; details: Homo sapiens, anti-proliferative effect, FIG. 6, caspase 8 deficient
Experimental: (§2) Cell lines. Cells and cell lines were maintained in either DMEM or RPMI supplemented with 10% FCS. The caspase-deficient NB7 neuroblastoma cells have been previously described (33). C8-deficient and reconstituted jurkat cells were provided by Dr. Steve Hedrick (UCSD). Silencing of Caspase-8 gene expression in the A549 cells was performed through the use of delivering shRNA in a lentiviral format. Briefly 293 T cells were transfected with caspase-8, (Open Biosystems) or scrambled (Addgene) shRNAs in pLK0.1 lentiviral vector, together with lentiviral packaging plasmids (PMLDL, VSV-G and RSV-REV) using fugene6. The ratio of target ShRNAs and packaging plasmids was ShRNA/PMLDL/VSV-G/RSV-REV, 10/10/6/4 μg. Lentiviral supernatants from 293 T cells were harvested after 48 hours and used to infect A549 cells. Viral constructs were incubated for 24 h with A549 cell lines prior to replacing media with selective media containing puromycin (1 μg/ml). […]
(§3) Cytotoxicity Assay. Cytotoxicity of ScA was assessed using the XTT cell proliferation assay. […] The plates were then incubated under standard tissue culture conditions until the control wells (DMSO) reached an OD value between 1.0-1.5. as measured at 450 nm using a microtiter plate reader. The cell viability-drug dilution profiles were obtained from sigma plots, and drug concentrations which inhibited growth by 50% were calculated from multiple runs. […]

[7] = test system: NB7 caspase 8 positive cells; assay: XTT cell proliferation assay; assay type: cell-based, human
Experimental: as §2, §3

[8] = test system: HUVEC primary endothelial cells; assay: 72 h XTT assay for Huvec cell proliferation; assay type: cell-based, human
Experimental: FIG. 2A illustrates a microtiter plate 72 hour (h) XTT assay for Huvec cell proliferation (2500 cells/well seeded), showing serial dilutions of structurally diverse marine natural compounds. […] FIG. 2B graphically illustrates the data for this study.
as §1

[9] = test system: HUVEC cells; assay: endothelial cell tube formation on Matrigel; assay type: cell-based, human
Experimental: Endothelial Cell Tube Formation. 96-well plates were coated with 200 uL matrigel per well and stored at 4° C. until use. HUVEC cells were harvested and cell suspensions were prepared at a density of 200,000/ml., and added at 100 ul per well to the plates. […] The plates were incubated at 37° C. under standard incubator conditions and the results were observed microcopically for tube formation.

[10] = test system: chick chorioallantoic membrane; assay: bFGF-induced angiogenesis in chick chorioallantoic membrane; assay type: in vivo; details: local introduction, 100 ng bFGF disks, 72 hours
Experimental: (§4) FIG. 31(A-F): Transgenic Tg(fli1:EGFP) zebrafish embryos in which GFP is expressed in endothelial cells were incubated without (A) or with increasing concentrations of ScA: 80 nM in FIG. 31(B), 160 nM in FIG. 31(C), 300 nM in FIG. 31(D) 1.6 μM in FIG. 31(E) or 3 μM in FIG. 31(F), and blood vessel morphology recorded by fluorescence microscopy. FIG. 31(G) Filter disks impregnated with 100 ng of bFGF were placed on the chorioallantoic membrane of eleven day old chicks to induce angiogenesis in the absence or presence of ScA, as shown. After 72 hours (h), disks were removed and the vascularity of the underlying chorioallantoic membrane determined by direct counting of branch points using a dissecting microscope. FIG. 31(H): NB7 neuroblastoma cells lacking caspase 8 (filled bar) or NB7-C8 cells reconstituted for caspase 8 expression (open bars) were seeded into ten day old chick chorioallantoic membranes to form tumors. After 72 hours, ScA was added topically to each growing tumor mass. Tumors were harvested and resected on day 8, and mass (wet weight) determined. Data shown is the mean±SD (N=8-12).
(§5) Chick Chorioallantoic membrane studies. The CAM studies were performed using 10 day old chick embryos as we've previously described (36). […]

[11] = test system: NB7-C8 neuroblastoma tumor cells; assay: neuroblastoma tumor growth on chick chorioallantoic membrane; assay type: in vivo; details: 100 picomoles ScA topically after 72 hours, harvested day 8; p<0.002; listed as ScA
Experimental: as §4
Tumors were then treated topically with 100 picomoles of ScA, and allowed to grow a further five days before being harvested.
as §5

[12] = chemical stability; assay type: physicochemical
[13] = test system: mouse neuro-2a neuroblastoma cells; details: cytotoxicity; cited from earlier work

Compound: C=CC/C=C/N(C)C(=O)CCCCCCCC/C=C/[C@H](CSSC[C@@H](/C=C/CCCCCCCCC(=O)N(C)/C=C/CC=C)NC(C)=O)NC(C)=O [somocystinamide A, Somocystinamide A]
- IC50 [1]: 1280 nM
- IC50 [2]: 600 nM
- IC50 [3]: 970 nM
- IC50 [4]: 830 nM
- IC50 [5]: 8 nM
- IC50 [6]: 810 nM
- IC50 ([7]; Homo sapiens, anti-proliferative effect, FIG. 6): 12 nM
- sensitivity of the caspase 8 positive cells to ScA ([7]; relative to NB7 cells): 100 times
- cytotoxicity, concentration range ([8]; 72 h XTT, 2500 cells/well, FIG. 2): cytotoxicity in the nanomolar concentration range
- IC50 ([8]; Homo sapiens, HUVEC, anti-proliferative effect, FIG. 6, read-out: IC50): 4 pM
- IC50 ([8]; cultured endothelial cells, XTT 72 hours): picomolar range
- tube formation of HUVEC/matrigel ([9]; 1 μM, 100 μM and 10 nM, FIG. 3): inhibits tube formation
- endothelial cell tube formation ([9]; 48 hours, FIG. 30B, listed as ScA): potently blocked endothelial cell tube formation; also recorded: endothelial cell tube formation was disrupted in dose-dependent manner
- growth factor-induced angiogenesis [10]: potently blocked growth factor-induced angiogenesis
- tumor growth / tumor mass (wet weight) [11]: significantly decreased; also recorded: inhibition of tumor growth selectively in the caspase 8-expressing tumor cells
- storage stability ([12]; apart from hydrolytic degradation of the unsaturated amide): otherwise quite stable
- acid sensitivity ([12]; converts to compound 2): highly acid-sensitive
- IC50 [13]: 1.4 µg/mL (≈ 1.84 µM)
